Consider 20 molecules from patent US12570659B2, “Bicyclic heteroaryl compounds useful as IRAK4 inhibitors” (BRISTOL-MYERS SQUIBB COMPANY, priority 2019, dated 2026).

The target in one assay is IRAK4 (Homo sapiens (Human), UniProt Q9NWZ3). Briefly: IRAK4 Inhibition Assay. It is filed as biochemical. The note with it: ATP 500 μM; IRAK4 0.6 nM; 60 min room temperature. On the procedure:
IRAK4 Inhibition Assay The assays were performed in U-bottom 384-well plates. […] The reaction was initiated by the combination of IRAK4 with substrates and test compounds. The reaction mixture was incubated at room temperature for 60 min. and terminated by adding 45 μL of 35 mM EDTA to each sample. The reaction mixture was analyzed on the Caliper LABCHIP® 3000 (Caliper, Hopkinton, MA) by electrophoretic separation of the fluorescent substrate and phosphorylated product. Inhibition data were calculated by comparison to no enzyme control reactions for 100% inhibition and vehicle-only reactions for 0% inhibition.

In the next assay the target is JAK3 kinase (Homo sapiens (Human), UniProt P52333). Briefly: JAK3 Homogeneous Time Resolved Fluorescence (HTRF) Assay. It is filed as binding. The note with it: for IC50: competition binding with fluorescein-labeled ATP competitive probe; for Ratio of JAK3 IC50 to IRAK4 IC50: selectivity for IRAK4 over JAK3. Here is the method:
JAK3 Homogeneous Time Resolved Fluorescence (HTRF) Assay
A time resolved FRET-based competition binding assay was used to assess test article binding to JAK3 kinase. His-tagged or GST-tagged kinase at a concentration of 1 nM was incubated with 0.2 nM Tb-labeled detection antibody (anti-His or anti-GST), test compound, and fluorescein-labeled ATP competitive probe at a concentration corresponding to the probe's equilibrium dissociation constant for one hour. Fluorescence at 495 nm and 520 nm was measured using an EnVision microplate reader to quantify FRET between Tb-labeled detection antibody and fluorescein-labeled probe. Background subtracted FRET ratios were normalized to the maximum signal obtained in the absence of test compound. These values were converted to a percent inhibition. Percent inhibition was determined for test compounds at 11 concentrations. The IC50, defined as the concentration of the competing test compound needed to reduce specific binding of the probe by 50%, was calculated using the 4 parameter logistic equation to fit the data.
In general terms: TR-FRET usually uses a lanthanide donor and a delayed reading to cut background.

By IC50 is commonly meant the concentration that gives 50% inhibition.

JAK3 kinase, sequence (P52333 whole entry): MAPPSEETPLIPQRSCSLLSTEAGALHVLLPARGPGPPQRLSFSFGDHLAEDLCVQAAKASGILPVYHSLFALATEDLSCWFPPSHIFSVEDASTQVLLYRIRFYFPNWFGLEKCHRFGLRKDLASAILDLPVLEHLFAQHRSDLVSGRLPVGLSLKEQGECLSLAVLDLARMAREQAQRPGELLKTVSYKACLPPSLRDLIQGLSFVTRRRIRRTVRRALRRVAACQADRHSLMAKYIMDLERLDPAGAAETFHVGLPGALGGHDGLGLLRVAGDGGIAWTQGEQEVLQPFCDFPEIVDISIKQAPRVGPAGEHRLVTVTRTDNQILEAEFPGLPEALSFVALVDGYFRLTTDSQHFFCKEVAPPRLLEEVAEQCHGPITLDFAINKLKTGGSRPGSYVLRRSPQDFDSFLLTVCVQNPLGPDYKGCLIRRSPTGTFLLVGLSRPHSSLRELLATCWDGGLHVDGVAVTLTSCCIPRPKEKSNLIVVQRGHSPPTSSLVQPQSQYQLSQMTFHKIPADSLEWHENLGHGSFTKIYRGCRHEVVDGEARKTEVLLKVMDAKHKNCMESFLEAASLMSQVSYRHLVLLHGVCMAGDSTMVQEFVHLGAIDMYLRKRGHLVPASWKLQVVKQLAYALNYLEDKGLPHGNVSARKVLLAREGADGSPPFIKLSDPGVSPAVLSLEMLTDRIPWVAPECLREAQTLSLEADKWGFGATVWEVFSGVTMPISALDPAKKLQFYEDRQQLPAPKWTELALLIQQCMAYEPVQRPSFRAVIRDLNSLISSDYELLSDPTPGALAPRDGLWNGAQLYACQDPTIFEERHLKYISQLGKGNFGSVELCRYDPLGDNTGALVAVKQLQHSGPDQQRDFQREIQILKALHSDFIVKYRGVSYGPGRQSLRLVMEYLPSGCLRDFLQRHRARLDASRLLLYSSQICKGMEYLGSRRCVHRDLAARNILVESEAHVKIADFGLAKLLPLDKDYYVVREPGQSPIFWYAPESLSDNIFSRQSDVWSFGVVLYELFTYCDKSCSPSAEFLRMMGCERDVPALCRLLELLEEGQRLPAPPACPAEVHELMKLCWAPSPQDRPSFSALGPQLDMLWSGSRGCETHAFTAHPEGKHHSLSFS
IRAK4, sequence (Q9NWZ3 whole entry, species assumed): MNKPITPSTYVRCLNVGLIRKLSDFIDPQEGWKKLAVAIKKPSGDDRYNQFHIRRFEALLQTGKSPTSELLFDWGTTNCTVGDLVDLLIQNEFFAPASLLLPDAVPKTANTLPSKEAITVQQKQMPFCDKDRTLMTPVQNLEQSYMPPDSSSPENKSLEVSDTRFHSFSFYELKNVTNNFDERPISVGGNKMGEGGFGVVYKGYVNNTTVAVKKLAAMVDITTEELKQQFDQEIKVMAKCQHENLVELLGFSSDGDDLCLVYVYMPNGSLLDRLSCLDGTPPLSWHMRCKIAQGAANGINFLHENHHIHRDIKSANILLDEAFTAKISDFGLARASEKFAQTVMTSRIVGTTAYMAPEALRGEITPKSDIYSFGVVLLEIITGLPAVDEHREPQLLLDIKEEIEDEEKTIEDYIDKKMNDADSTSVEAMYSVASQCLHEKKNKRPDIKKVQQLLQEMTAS

As to `CC(C)(O)[C@H](F)CNC(=O)c1cnn2cc(-c3nccs3)cc2c1NC1CCOCC1` [Example 19, (R)—N-(2-fluoro-3-hydroxy-3-methylbutyl)-4-((tetrahydro-2H-pyran-4-yl)amino)-6-(thiazol-2-yl) pyrrolo[1,2-b]pyridazine-3-carboxamide], the IC50 on IRAK4 came to 15 nM. Moreover, at JAK3 kinase, the IC50 is greater than 10000 nM and the “Ratio of JAK3 IC50 to IRAK4 IC50” value is given as greater than 667.

For `CC(C)(O)[C@H](F)CNC(=O)c1cnn2cc(-c3ccc(C#N)cn3)cc2c1NC1CCOCC1` [Example 20, (R)-6-(5-cyanopyridin-2-yl)-N-(2-fluoro-3-hydroxy-3-methylbutyl)-4-((tetrahydro-2H-pyran-4-yl)amino)pyrrolo[1,2-b] pyridazine-3-carboxamide], the IC50 on IRAK4 came to 150 nM. Moreover, at JAK3 kinase, the IC50 is greater than 50000 nM and the “Ratio of JAK3 IC50 to IRAK4 IC50” value is on record as greater than 333.

With `CC(C)(O)CCNc1c(C(=O)NC[C@@H](F)C(C)(C)O)cnn2cc(-c3ccc(F)nc3)cc12` [Example 21, (R)—N-(2-fluoro-3-hydroxy-3-methylbutyl)-6-(6-fluoropyridin-3-yl)-4-((3-hydroxy-3-methylbutyl)amino)pyrrolo[1,2-b] pyridazine-3-carboxamide], on IRAK4, the IC50 is 170 nM. Moreover, at JAK3 kinase, the half-maximal inhibitory concentration (IC50) was greater than 50000 nM and the “Ratio of JAK3 IC50 to IRAK4 IC50” value was greater than 294.

In the case of `CC(C)(O)CCNc1c(C(=O)NC[C@@H](F)C(C)(C)O)cnn2cc(-c3cccnc3F)cc12` [Example 22, (R)—N-(2-fluoro-3-hydroxy-3-methylbutyl)-6-(2-fluoropyridin-3-yl)-4-((3-hydroxy-3-methylbutyl)amino)pyrrolo[1,2-b]pyridazine-3-carboxamide], at IRAK4, the IC50 was found to be 180 nM. At JAK3 kinase, the IC50 was greater than 50000 nM and the “Ratio of JAK3 IC50 to IRAK4 IC50” value is greater than 278.

In the case of `Cc1cc(-c2cc3c(NCCC(C)(C)O)c(C(=O)NC[C@@H](F)C(C)(C)O)cnn3c2)ccn1` [Example 23, (R)—N-(2-fluoro-3-hydroxy-3-methylbutyl)-4-((3-hydroxy-3-methylbutyl)amino)-6-(2-methylpyridin-4-yl)pyrrolo[1,2-b]pyridazine-3-carboxamide], the IC50 at IRAK4 came out at 110 nM. Besides, at JAK3 kinase, the IC50 was greater than 50000 nM and the “Ratio of JAK3 IC50 to IRAK4 IC50” value is recorded as greater than 455.

For the molecule `Cc1cc(F)ncc1-c1cc2c(NCCC(C)(C)O)c(C(=O)NC[C@@H](F)C(C)(C)O)cnn2c1` [Example 24, (R)—N-(2-fluoro-3-hydroxy-3-methylbutyl)-6-(6-fluoro-4-methylpyridin-3-yl)-4-((3-hydroxy-3-methylbutyl)amino)pyrrolo[1,2-b]pyridazine-3-carboxamide], the IC50 at IRAK4 was 140 nM. Besides, on JAK3 kinase, the IC50 was greater than 10000 nM and the “Ratio of JAK3 IC50 to IRAK4 IC50” value is recorded as greater than 71.

In the case of `CC(C)(O)CCNc1c(C(=O)NC[C@@H](F)C(C)(C)O)cnn2cc(-c3cccnc3)cc12` [Example 25, (R)—N-(2-fluoro-3-hydroxy-3-methylbutyl)-4-((3-hydroxy-3-methylbutyl)amino)-6-(pyridin-3-yl) pyrrolo[1,2-b]pyridazine-3-carboxamide], the IC50 at IRAK4 turned out to be 280 nM. Further, at JAK3 kinase, the half-inhibitory concentration (IC50) was greater than 50000 nM and the “Ratio of JAK3 IC50 to IRAK4 IC50” value was greater than 179.

Take `CC(C)(O)CCNc1c(C(=O)NC[C@@H](F)C(C)(C)O)cnn2cc(-c3cccc(F)c3)cc12` [Example 26, (R)—N-(2-fluoro-3-hydroxy-3-methylbutyl)-6-(3-fluorophenyl)-4-((3-hydroxy-3-methylbutyl)amino)pyrrolo[1,2-b] pyridazine-3-carboxamide]: the 50% inhibitory concentration (IC50) at IRAK4 turned out to be 370 nM. In addition, at JAK3 kinase, the IC50 was greater than 50000 nM and the “Ratio of JAK3 IC50 to IRAK4 IC50” value is greater than 135.

In the case of `CC(C)(O)CCNc1c(C(=O)NC[C@@H](F)C(C)(C)O)cnn2cc(-c3ccc(C#N)nc3)cc12` [Example 27, (R)-6-(6-cyanopyridin-3-yl)-N-(2-fluoro-3-hydroxy-3-methylbutyl)-4-((3-hydroxy-3-methylbutyl)amino)pyrrolo[1,2-b]pyridazine-3-carboxamide], on IRAK4, the IC50 was found to be 240 nM. At JAK3 kinase, the IC50 is greater than 50000 nM and the “Ratio of JAK3 IC50 to IRAK4 IC50” value was greater than 208.

Take `CC(C)(O)CCNc1c(C(=O)NC[C@@H](F)C(C)(C)O)cnn2cc(-c3ccncc3)cc12` [Example 28, (R)—N-(2-fluoro-3-hydroxy-3-methylbutyl)-4-((3-hydroxy-3-methylbutyl)amino)-6-(pyridin-4-yl)pyrrolo[1,2-b]pyridazine-3-carboxamide]: the IC50 on IRAK4 came out at 40.3 nM. For the same molecule, at JAK3 kinase, the IC50 is greater than 50000 nM and the “Ratio of JAK3 IC50 to IRAK4 IC50” value was greater than 1241.

In the case of `CC(C)(O)[C@H](F)CNC(=O)c1cnn2cc(-c3cccnc3)cc2c1NC1CCCC1` [Example 30, (R)-4-(cyclopentylamino)-N-(2-fluoro-3-hydroxy-3-methylbutyl)-6-(pyridin-3-yl)pyrrolo[1,2-b]pyridazine-3-carboxamide], the IC50 at IRAK4 turned out to be 55 nM. For the same molecule, at JAK3 kinase, the concentration for half-maximal inhibition (IC50) was greater than 10000 nM and the “Ratio of JAK3 IC50 to IRAK4 IC50” value is reported as greater than 182.

Consider `CC(C)(O)[C@H](F)CNC(=O)c1cnn2cc(-c3ccccc3)cc2c1NC1CC1` [Example 31, (R)-4-(cyclopropylamino)-N-(2-fluoro-3-hydroxy-3-methylbutyl)-6-phenylpyrrolo[1,2-b] pyridazine-3-carboxamide], for which the IC50 at IRAK4 amounted to 33 nM. Also, on JAK3 kinase, the IC50 is greater than 2000 nM and the “Ratio of JAK3 IC50 to IRAK4 IC50” value is greater than 61.

On to `CC(C)(O)[C@H](F)CNC(=O)c1cnn2cc(-c3cccnc3)cc2c1NC1CC1` [Example 32, (R)-4-(cyclopropylamino)-N-(2-fluoro-3-hydroxy-3-methylbutyl)-6-(pyridin-3-yl)pyrrolo[1,2-b]pyridazine-3-carboxamide], for which the IC50 at IRAK4 worked out at 11 nM. For the same molecule, at JAK3 kinase, the IC50 is greater than 50000 nM and the “Ratio of JAK3 IC50 to IRAK4 IC50” value is reported as greater than 4545.

For `CC(C)Nc1c(C(=O)NC[C@@H](F)C(C)(C)O)cnn2cc(-c3ccnn3C)cc12` [Example 33, (R)—N-(2-fluoro-3-hydroxy-3-methylbutyl)-4-(isopropylamino)-6-(1-methyl-1H-pyrazol-5-yl) pyrrolo[1,2-b]pyridazine-3-carboxamide], the IC50 at IRAK4 is 26 nM. For the same molecule, at JAK3 kinase, the IC50 was greater than 50000 nM and the “Ratio of JAK3 IC50 to IRAK4 IC50” value is greater than 1923.

On to `CC(C)Nc1c(C(=O)NC[C@@H](F)C(C)(C)O)cnn2cc(C#N)cc12` [Example 35, (R)-6-cyano-N-(2-fluoro-3-hydroxy-3-methylbutyl)-4-(isopropylamino)pyrrolo[1,2-b]pyridazine-3-carboxamide], for which, on IRAK4, the IC50 came to 190 nM. Further, at JAK3 kinase, the IC50 is greater than 50000 nM and the “Ratio of JAK3 IC50 to IRAK4 IC50” value is given as greater than 263.

`CC(C)Nc1c(C(=O)NC[C@@H](F)C(C)(C)O)cnn2cc(C3CC3)cc12` [Example 36, (R)-6-cyclopropyl-N-(2-fluoro-3-hydroxy-3-methylbutyl)-4-(isopropylamino)pyrrolo[1,2-b]pyridazine-3-carboxamide]: on IRAK4, the IC50 came out at 46 nM. Also, at JAK3 kinase, the IC50 was greater than 50000 nM and the “Ratio of JAK3 IC50 to IRAK4 IC50” value was greater than 1087.

As to `CC(C)Nc1c(C(=O)NC[C@@H](F)C(C)(C)O)cnn2cc(-n3ncc4cncnc43)cc12` [Example 37, (R)—N-(2-fluoro-3-hydroxy-3-methylbutyl)-4-(isopropylamino)-6-(1H-pyrazolo[3,4-d]pyrimidin-1-yl)pyrrolo[1,2-b]pyridazine-3-carboxamide], the IC50 at IRAK4 was 3.8 nM; at JAK3 kinase it was greater than 50000 nM. Besides, the “Ratio of JAK3 IC50 to IRAK4 IC50” value on JAK3 kinase is reported as greater than 13158.

With `CC(C)Nc1c(C(=O)NC[C@@H](F)C(C)(C)O)cnn2cc(-c3cnn4cc(Cl)cnc34)cc12` [Example 38, (R)-6-(6-chloropyrazolo[1,5-a]pyrimidin-3-yl)-N-(2-fluoro-3-hydroxy-3-methylbutyl)-4-(isopropylamino)pyrrolo[1,2-b]pyridazine-3-carboxamide], the IC50 at IRAK4 is 39 nM; at JAK3 kinase, greater than 9900 nM. Moreover, the “Ratio of JAK3 IC50 to IRAK4 IC50” value on JAK3 kinase is greater than 254.

Take `CC(C)Nc1c(C(=O)NC[C@@H](F)C(C)(C)O)cnn2cc(-n3ncc4cc(C#N)cnc43)cc12` [Example 39, (R)-6-(5-cyano-1H-pyrazolo[3,4-b]pyridin-1-yl)-N-(2-fluoro-3-hydroxy-3-methylbutyl)-4-(isopropylamino) pyrrolo[1,2-b]pyridazine-3-carboxamide]: at IRAK4, the IC50 stood at 21 nM. In addition, at JAK3 kinase, the half-maximal inhibitory concentration (IC50) was greater than 50000 nM and the “Ratio of JAK3 IC50 to IRAK4 IC50” value is recorded as greater than 2381.

Take `CC(C)Nc1c(C(=O)NC[C@@H](F)C(C)(C)O)cnn2cc(Nc3ccc(C#N)cn3)cc12` [Example 40, (R)-6-((5-cyanopyridin-2-yl)amino)-N-(2-fluoro-3-hydroxy-3-methylbutyl)-4-(isopropylamino) pyrrolo[1,2-b]pyridazine-3-carboxamide]: on IRAK4, the IC50 was determined as 240 nM. Moreover, on JAK3 kinase, the IC50 is greater than 50000 nM and the “Ratio of JAK3 IC50 to IRAK4 IC50” value is on record as greater than 208.
